According to ChEMBL document CHEMBL1152560, “Substituted 2-arylbenzothiazoles as kinase inhibitors: hit-to-lead optimization” (Bioorg Med Chem, 2009):

Columns and labels:
[1] = biological target: Serine/threonine-protein kinase WNK3 (Homo sapiens) (UniProt Q9BYP7); assay: Residual activity of WNK3 at 10 uM by microplate scintillation counting
[2] = biological target: T1, Ephrin type-B receptor 2 (Homo sapiens) (UniProt P29323); assay: Residual activity of EPHB2 at 10 uM by microplate scintillation counting
T1 sequence (whole entry): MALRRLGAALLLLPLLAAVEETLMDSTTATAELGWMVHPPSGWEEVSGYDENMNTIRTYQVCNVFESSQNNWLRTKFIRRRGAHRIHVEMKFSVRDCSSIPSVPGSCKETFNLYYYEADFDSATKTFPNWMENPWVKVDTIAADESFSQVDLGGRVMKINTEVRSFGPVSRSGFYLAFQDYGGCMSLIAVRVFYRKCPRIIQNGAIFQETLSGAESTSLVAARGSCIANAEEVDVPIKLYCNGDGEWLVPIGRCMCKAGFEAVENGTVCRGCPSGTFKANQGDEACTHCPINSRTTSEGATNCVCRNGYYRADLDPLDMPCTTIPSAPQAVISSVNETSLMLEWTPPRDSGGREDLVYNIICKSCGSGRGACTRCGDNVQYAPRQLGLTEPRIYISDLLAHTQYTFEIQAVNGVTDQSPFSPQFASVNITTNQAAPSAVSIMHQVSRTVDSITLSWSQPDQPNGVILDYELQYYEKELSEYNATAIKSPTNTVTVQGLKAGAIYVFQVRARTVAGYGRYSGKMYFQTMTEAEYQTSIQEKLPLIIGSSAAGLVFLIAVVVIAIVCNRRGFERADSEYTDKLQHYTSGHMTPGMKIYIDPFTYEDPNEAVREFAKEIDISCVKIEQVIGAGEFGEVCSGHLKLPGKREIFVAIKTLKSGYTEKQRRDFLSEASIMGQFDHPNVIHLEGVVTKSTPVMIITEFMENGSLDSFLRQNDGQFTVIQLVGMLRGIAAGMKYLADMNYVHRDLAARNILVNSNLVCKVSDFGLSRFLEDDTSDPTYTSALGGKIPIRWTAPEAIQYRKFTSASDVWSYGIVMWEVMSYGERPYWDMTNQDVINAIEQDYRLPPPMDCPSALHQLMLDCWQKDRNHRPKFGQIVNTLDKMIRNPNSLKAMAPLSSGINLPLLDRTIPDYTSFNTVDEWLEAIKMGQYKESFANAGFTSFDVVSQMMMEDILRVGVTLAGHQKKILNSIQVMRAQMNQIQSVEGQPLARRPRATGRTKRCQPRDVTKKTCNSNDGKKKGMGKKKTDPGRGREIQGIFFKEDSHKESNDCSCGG

[3] = biological target: G protein-coupled receptor kinase 5 (Homo sapiens) (UniProt P34947); assay: Residual activity of GRK5 at 0.1 uM by microplate scintillation counting
Chain of G protein-coupled receptor kinase 5 (Homo sapiens) (P34947 whole entry, looked up): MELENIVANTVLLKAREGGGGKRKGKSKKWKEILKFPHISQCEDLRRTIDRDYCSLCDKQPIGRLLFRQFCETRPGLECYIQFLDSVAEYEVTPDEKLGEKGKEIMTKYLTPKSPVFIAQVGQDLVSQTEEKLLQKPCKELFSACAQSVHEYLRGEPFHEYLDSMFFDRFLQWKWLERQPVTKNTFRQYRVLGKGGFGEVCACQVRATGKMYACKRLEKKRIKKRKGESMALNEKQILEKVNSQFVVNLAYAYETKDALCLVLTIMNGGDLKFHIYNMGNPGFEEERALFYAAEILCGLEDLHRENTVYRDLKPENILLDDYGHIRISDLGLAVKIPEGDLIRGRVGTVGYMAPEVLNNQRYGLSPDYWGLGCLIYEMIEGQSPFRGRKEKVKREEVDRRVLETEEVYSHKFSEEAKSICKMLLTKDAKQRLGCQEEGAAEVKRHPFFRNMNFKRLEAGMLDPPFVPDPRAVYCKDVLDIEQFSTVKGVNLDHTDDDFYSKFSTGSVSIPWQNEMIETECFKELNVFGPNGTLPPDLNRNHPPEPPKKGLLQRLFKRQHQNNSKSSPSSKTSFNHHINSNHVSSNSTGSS

[4] = biological target: Serine/threonine-protein kinase WNK3 (Homo sapiens) (UniProt Q9BYP7); assay: Residual activity of WNK3 at 0.1 uM by microplate scintillation counting
[5] = biological target: T2, Ephrin type-A receptor 1 (Homo sapiens) (UniProt P21709); assay: Residual activity of EPHA1 at 1 uM by microplate scintillation counting
T2 sequence (whole entry): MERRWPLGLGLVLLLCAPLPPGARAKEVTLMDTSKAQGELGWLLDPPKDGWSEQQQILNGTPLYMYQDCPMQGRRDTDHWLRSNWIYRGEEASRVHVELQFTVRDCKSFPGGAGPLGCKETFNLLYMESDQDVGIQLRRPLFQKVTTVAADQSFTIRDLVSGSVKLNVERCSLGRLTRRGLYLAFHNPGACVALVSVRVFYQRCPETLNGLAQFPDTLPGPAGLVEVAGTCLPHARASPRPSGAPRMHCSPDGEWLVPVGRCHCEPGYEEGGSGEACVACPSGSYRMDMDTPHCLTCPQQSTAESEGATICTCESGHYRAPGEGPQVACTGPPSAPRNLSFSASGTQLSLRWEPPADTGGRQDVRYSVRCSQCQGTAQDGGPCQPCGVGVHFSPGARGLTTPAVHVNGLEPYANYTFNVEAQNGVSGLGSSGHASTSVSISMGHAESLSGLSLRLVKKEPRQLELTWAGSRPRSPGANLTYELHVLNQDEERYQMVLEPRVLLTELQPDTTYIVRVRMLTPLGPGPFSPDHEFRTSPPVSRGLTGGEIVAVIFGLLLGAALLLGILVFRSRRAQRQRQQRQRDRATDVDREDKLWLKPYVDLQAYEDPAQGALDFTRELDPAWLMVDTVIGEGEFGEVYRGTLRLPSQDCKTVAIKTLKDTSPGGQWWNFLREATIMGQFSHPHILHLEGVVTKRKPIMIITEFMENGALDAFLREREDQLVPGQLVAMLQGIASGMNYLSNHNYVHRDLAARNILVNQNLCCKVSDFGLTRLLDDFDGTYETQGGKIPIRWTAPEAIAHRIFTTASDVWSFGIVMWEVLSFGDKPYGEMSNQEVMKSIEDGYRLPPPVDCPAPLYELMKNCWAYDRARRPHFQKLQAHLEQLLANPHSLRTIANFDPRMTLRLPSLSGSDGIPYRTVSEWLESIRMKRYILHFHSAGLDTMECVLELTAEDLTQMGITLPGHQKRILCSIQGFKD

[6] = biological target: T3, Megakaryocyte-associated tyrosine-protein kinase (Homo sapiens) (UniProt P42679); assay: Residual activity of MATK at 0.1 uM by microplate scintillation counting
T3 sequence (whole entry): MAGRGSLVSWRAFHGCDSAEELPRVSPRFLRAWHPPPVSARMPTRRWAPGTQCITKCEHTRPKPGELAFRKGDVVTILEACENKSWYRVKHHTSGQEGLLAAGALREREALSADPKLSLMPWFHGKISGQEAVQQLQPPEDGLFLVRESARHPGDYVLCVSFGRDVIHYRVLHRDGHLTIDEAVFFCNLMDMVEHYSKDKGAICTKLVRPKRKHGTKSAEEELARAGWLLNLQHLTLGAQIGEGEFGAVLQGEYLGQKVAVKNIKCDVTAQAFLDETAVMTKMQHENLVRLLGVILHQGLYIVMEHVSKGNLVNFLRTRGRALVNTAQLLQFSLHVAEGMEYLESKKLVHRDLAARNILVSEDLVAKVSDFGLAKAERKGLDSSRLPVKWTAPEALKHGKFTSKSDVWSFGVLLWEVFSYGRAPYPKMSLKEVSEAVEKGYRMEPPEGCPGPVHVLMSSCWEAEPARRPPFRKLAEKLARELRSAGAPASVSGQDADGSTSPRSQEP

[7] = biological target: G protein-coupled receptor kinase 5 (Homo sapiens) (UniProt P34947); assay: Residual activity of GRK5 at 10 uM by microplate scintillation counting

Chain of Serine/threonine-protein kinase WNK3 (Homo sapiens) (Q9BYP7 whole entry): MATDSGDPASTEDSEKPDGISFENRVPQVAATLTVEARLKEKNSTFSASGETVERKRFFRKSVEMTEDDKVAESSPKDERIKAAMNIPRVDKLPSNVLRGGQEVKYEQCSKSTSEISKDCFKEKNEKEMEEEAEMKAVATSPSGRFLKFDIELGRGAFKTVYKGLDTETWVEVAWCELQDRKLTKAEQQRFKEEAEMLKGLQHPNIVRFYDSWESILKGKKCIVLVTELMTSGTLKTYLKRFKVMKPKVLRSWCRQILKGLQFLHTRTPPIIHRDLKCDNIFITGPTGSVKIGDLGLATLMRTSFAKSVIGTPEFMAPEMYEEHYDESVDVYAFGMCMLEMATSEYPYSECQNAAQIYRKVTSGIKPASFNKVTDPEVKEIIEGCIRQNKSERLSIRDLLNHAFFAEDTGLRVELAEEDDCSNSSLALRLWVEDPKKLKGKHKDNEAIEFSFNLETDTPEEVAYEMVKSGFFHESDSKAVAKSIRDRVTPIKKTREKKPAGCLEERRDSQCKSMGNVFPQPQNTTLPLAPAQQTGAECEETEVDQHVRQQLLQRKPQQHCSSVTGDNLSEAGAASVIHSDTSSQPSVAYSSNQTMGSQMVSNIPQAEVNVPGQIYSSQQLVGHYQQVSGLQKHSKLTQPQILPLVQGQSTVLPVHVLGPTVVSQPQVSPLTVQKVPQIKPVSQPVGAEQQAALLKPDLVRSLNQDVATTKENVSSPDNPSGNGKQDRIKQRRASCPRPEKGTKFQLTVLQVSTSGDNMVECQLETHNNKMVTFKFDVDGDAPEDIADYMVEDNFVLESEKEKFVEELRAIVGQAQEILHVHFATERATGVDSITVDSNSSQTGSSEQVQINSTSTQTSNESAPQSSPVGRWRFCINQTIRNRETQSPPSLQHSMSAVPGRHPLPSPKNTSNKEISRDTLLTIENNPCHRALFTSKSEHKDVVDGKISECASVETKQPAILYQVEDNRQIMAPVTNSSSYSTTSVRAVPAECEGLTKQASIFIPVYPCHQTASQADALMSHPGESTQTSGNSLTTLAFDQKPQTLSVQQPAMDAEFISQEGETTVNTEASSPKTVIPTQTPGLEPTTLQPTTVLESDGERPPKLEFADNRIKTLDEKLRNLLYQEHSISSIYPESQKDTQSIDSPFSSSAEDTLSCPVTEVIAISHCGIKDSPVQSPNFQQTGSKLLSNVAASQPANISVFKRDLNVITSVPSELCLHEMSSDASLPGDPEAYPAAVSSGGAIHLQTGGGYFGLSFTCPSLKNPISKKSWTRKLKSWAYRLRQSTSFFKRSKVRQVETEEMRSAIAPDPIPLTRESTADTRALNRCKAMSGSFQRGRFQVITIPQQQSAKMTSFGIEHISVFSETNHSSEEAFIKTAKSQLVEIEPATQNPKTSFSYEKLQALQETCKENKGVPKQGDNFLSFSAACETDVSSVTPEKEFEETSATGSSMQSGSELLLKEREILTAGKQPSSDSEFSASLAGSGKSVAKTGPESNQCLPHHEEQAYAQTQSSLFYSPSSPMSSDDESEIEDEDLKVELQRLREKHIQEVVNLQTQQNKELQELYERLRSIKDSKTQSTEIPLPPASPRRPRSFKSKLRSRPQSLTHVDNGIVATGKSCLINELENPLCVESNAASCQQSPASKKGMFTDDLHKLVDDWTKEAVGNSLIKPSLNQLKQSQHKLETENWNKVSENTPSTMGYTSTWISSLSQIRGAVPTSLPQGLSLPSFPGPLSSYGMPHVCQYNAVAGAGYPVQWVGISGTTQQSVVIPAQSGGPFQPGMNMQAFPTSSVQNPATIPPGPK

residual activity [1] [%]	residual activity [2] [%]	residual activity [3] [%]	residual activity [4] [%]	residual activity [5] [%]	residual activity [6] [%]	residual activity [7] [%]	SMILES
21	35	86	94	147	109	81	COc1cc2c(Oc3ccc(-c4nc5ccccc5s4)cc3)ncnc2cc1OCCCN1CCCC1
23	18	87	90	140	107	76	COc1cc2c(Oc3ccc(-c4nc5ccccc5s4)cc3)ncnc2cc1OCCCN1CCN(C)CC1
39	16	86	84	145	96	84	COc1cc2c(Oc3ccc(-c4nc5ccccc5s4)cc3F)ncnc2cc1OCCCN1CCN(C)CC1
